Laboratory results reported in patent US20130142831A1, “COMPOUNDS FOR INFLAMMATION AND IMMUNE-RELATED USES” (Synta Pharmaceuticals Corp., priority 2004, published 2013).

Each compound was assayed on IL-2 production (assay: Inhibition of IL-2 production in PHA-activated Jurkat cells). Details: Homo sapiens, PHA 2.5 μg/mL, 20 hours, bins given in nM.
Type: cell-based
Procedure: Jurkat cells were placed in a 96 well plate (0.5 million cells per well in 1% FBS medium) then test compounds of this invention were added at different concentrations. After 10 minutes, the cells were activated with PHA (final concentration 2.5 μg/mL) and incubated for 20 hours at 37° C. under CO2. The final volume was 200 μL. Following incubation, the cells were centrifuged and the supernatants collected and stored at −70° C. prior to assaying for IL-2 production. A commercial kit (IL-2 Eli-pair, Diaclone Research, Besancon, France) was used to detect production of IL-2, from which dose response curves were obtained. The IC50 value was calculated as the concentration at which. 50% of maximum IL-2 production after stimulation was inhibited versus a non-stimulation control.

Q: With `COC(=O)c1ccc2c(c1)nc(C(F)(F)F)n2-c1ccc(NC(=O)c2cccc(F)c2F)cc1` [Compound 96, 2-Trifluoromethyl-1-[4-(2,3-difluoro-benzoylamimo)-phenyl]-1H-benzoimidazole-5-carboxylic acid methyl ester] as the compound, how does the IC50 read?
A: < 100 nM

Q: With `COc1ccc2c(c1)nc(C(F)(F)F)n2-c1ccc(NC(=O)c2c(F)c(F)c(F)c(F)c2F)cc1` [Compound 97, 2,3,4,5,6-Pentafluoro-N-[4-(2-trifluoromethyl-5-methoxy-benzoimidazol-1-yl)-phenyl]-benzamide] as the compound, how does the IC50 read?
A: < 100 nM

Q: Which IC50 does the source give for `COc1ccc2c(c1)nc(C(F)(F)F)n2-c1ccc(NC(=O)c2ccc(F)cc2F)cc1` [Compound 98, 2,4-Difluoro-N-[4-(2-trifluoromethyl-5-methoxy-benzoimidazol-1-yl)-phenyl]-benzamide] here?
A: < 100 nM

Q: With `O=C(Nc1ccc(-n2c(C(F)(F)F)nc3cc(O)ccc32)cc1)c1cccc(F)c1F` [Compound 99, 2,3-Difluoro-N-[4-(2-trifluoromethyl-5-hydroxy-benzoimidazol-1-yl)-phenyl]-benzamide] as the compound, how does the IC50 read?
A: < 100 nM

Q: `COc1ccc2c(c1)nc(C(F)(F)F)n2-c1ccc(NC(=O)c2cc(F)ccc2F)cc1` [Compound 100, 2,5-Difluoro-N-[4-(2-trifluoromethyl-5-methoxy-benzoimidazol-1-yl)-phenyl]-benzamide] was tested. Which IC50 did it give?
A: < 100 nM

Q: For `COc1ccc2c(c1)nc(C(F)(F)F)n2-c1ccc(NC(=O)c2cccc(C#N)c2)cc1` [Compound 101, 3-Cyano-N-[4-(2-trifluoromethyl-5-methoxy-benzoimidazol-1-yl)-phenyl]-benzamide], which IC50 is on record?
A: < 100 nM

Q: With `COc1ccc2c(c1)nc(C(F)(F)F)n2-c1ccc(NC(=O)c2c(Cl)cccc2Cl)cc1` [Compound 102, 2,6-Dichloro-N-[4-(2-trifluoromethyl-5-methoxy-benzoimidazol-1-yl)-phenyl]-benzamide] as the compound, how does the IC50 read?
A: < 100 nM

Q: `COc1ccc2c(c1)nc(C(F)(F)F)n2-c1ccc(NC(=O)c2ccccc2Br)cc1` [Compound 104, 2-Bromo-N-[4-(2-trifluoromethyl-5-methoxy-benzoimidazol-1-yl)-phenyl]-benzamide] was tested. Which IC50 did it give?
A: < 100 nM

Q: For `COc1ccc2c(c1)nc(C(F)(F)F)n2-c1ccc(NC(=O)C2CCCC2)cc1` [Compound 105, N-[4-(2-trifluoromethyl-5-methoxy-benzoimidazol-1-yl)-phenyl]-cyclopentanecarboxylic acid amide], which IC50 is on record?
A: < 100 nM

Q: For `COc1ccc2c(c1)nc(C(F)(F)F)n2-c1ccc(NC(=O)C2CCCCC2)cc1` [Compound 106, N-[4-(2-trifluoromethyl-5-methoxy-benzoimidazol-1-yl)-phenyl]-cyclohexanecarboxylic acid amide], which IC50 is on record?
A: < 100 nM

Q: For `COc1ccc2c(c1)nc(C(F)(F)F)n2-c1ccc(NC(=O)c2ccccc2[N+](=O)[O-])cc1` [Compound 107, 2-Nitro-N-[4-(2-trifluoromethyl-5-methoxy-benzoimidazol-1-yl)-phenyl]-benzamide], which IC50 is on record?
A: < 100 nM

Q: `COc1ccc2c(c1)nc(C(F)(F)F)n2-c1ccc(NC(=O)c2ccc(Cl)cc2)cc1` [Compound 108, 4-Chloro-N-[4-(2-trifluoromethyl-5-methoxy-benzoimidazol-1-yl)-phenyl]-benzamide] was tested. Which IC50 did it give?
A: < 100 nM

Q: How did the IC50 turn out when `COc1ccc2c(c1)nc(C(F)(F)F)n2-c1ccc(NC(=O)c2cccc(Cl)c2)cc1` [Compound 109, 3-Chloro-N-[4-(2-trifluoromethyl-5-methoxy-benzoimidazol-1-yl)-phenyl]-benzamide] was run?
A: < 100 nM

Q: `COc1ccc2c(c1)nc(C(F)(F)F)n2-c1ccc(NC(=O)c2ccc(F)c(F)c2)cc1` [Compound 110, 3,4-Difluoro-N-[4-(2-trifluoromethyl-5-methoxy-benzoimidazol-1-yl)-phenyl]-benzamide] was tested. Which IC50 did it give?
A: < 100 nM

Q: `COc1ccc2c(c1)nc(C(F)(F)F)n2-c1ccc(NC(=O)c2ccccc2)cc1` [Compound 111, N-[4-(2-trifluoromethyl-5-methoxy-benzoimidazol-1-yl)-phenyl]-benzamide] was tested. Which IC50 did it give?
A: < 100 nM

Q: For `CC(C)Oc1ccc2c(c1)nc(C(F)(F)F)n2-c1ccc(NC(=O)c2cccc(F)c2F)cc1` [Compound 112, 2,3-Difluoro-N-[4-(2-trifluoromethyl-5-isopropoxy-benzoimidazol-1-yl)-phenyl]-benzamide], which IC50 is on record?
A: < 100 nM

Q: Which IC50 does the source give for `NC(=O)c1ccc2c(c1)nc(C(F)(F)F)n2-c1ccc(NC(=O)c2cccc(F)c2F)cc1` [Compound 113, 2,3-Difluoro-N-[4-(2-trifluoromethyl-5-carbamoyl-benzoimidazol-1-yl)-phenyl]-benzamide] here?
A: < 100 nM

Q: `COc1ccc2c(c1)nc(C(F)(F)F)n2-c1ccc(NC(=O)c2ccncc2)cc1` [Compound 114, N-[4-(2-trifluoromethyl-5-methoxy-benzoimidazol-1-yl)-phenyl]-isonicotinamide] was tested. Which IC50 did it give?
A: < 100 nM

Q: How did the IC50 turn out when `COc1ccc2c(c1)nc(C(F)(F)F)n2-c1ccc(NC(=O)c2ccccc2I)cc1` [Compound 115, 2-Iodo-N-[4-(2-trifluoromethyl-5-methoxy-benzoimidazol-1-yl)-phenyl]-benzamide] was run?
A: < 100 nM

Q: `COc1ccc2c(c1)nc(C(F)(F)F)n2-c1ccc(NC(=O)CC(C)C)cc1` [Compound 116, 3-Methyl-N-[4-(2-trifluoromethyl-5-methoxy-benzoimidazol-1-yl)-phenyl]-butyramide] was tested. Which IC50 did it give?
A: < 100 nM

Q: How did the IC50 turn out when `COc1ccc2c(c1)nc(C(F)(F)F)n2-c1ccc(NC(=O)c2cc(Cl)cc(Cl)c2)cc1` [Compound 117, 3,5-Dichloro-N-[4-(2-trifluoromethyl-5-methoxy-benzoimidazol-1-yl)-phenyl]-benzamide] was run?
A: < 100 nM

Q: Which IC50 does the source give for `COc1ccc2c(c1)nc(C(F)(F)F)n2-c1ccc(NC(=O)c2cccc(Br)c2)cc1` [Compound 118, 3-Bromo-N-[4-(2-trifluoromethyl-5-methoxy-benzoimidazol-1-yl)-phenyl]-benzamide] here?
A: < 100 nM

Q: `COc1ccc2c(c1)nc(C(F)(F)F)n2-c1ccc(NC(=O)c2ccc(Br)cc2)cc1` [Compound 119, 4-Bromo-N-[4-(2-trifluoromethyl-5-methoxy-benzoimidazol-1-yl)-phenyl]-benzamide] was tested. Which IC50 did it give?
A: < 100 nM

Q: With `CC(=O)Oc1ccc2c(c1)nc(C(F)(F)F)n2-c1ccc(NC(=O)c2cccc(F)c2F)cc1` [Compound 132, 2,3-Difluoro-N-[4-(2-trifluoromethyl-5-acetoxy-benzoimidazol-1-yl)-phenyl]-benzamide] as the compound, how does the IC50 read?
A: < 100 nM

Same assay, conditions: Homo sapiens, PHA 2.5 μg/mL, 20 hours, bins given with μM limit

Q: How did the IC50 turn out when `COc1ccc2c(c1)nc(C(F)(F)F)n2-c1ccc(NC(=O)c2ccco2)cc1` [Compound 120, Furan-2-carboxylic acid {N-[4-(2-trifluoromethyl-5-methoxy-benzoimidazol-1-yl)-phenyl]}-amide] was run?
A: > 1000 nM

Q: With `COc1ccc2c(c1)nc(C(F)(F)F)n2-c1ccc(NC(=O)C2CCCN2C(=O)C(F)(F)F)cc1` (stereo not drawn) [Compound 121, 1-(2,2,2-Trifluoroacetyl)-N-[4-(2-trifluoromethyl-5-methoxy-benzoimidazol-1-yl)-phenyl]-pyrrolidine-2-carboxylic acid amide] as the compound, how does the IC50 read?
A: > 1000 nM

Q: `C=CC(=O)Nc1ccc(-n2c(C(F)(F)F)nc3cc(OC)ccc32)cc1` [Compound 122, N-[4-(2-trifluoromethyl-5-methoxy-benzoimidazol-1-yl)-phenyl]-acrylamide] was tested. Which IC50 did it give?
A: > 1000 nM

Q: Which IC50 does the source give for `COc1ccc2c(c1)nc(C(F)(F)F)n2-c1ccc(NC(=O)COCc2ccccc2)cc1` [Compound 123, 2-Benzyloxy-N-[4-(2-trifluoromethyl-5-methoxy-benzoimidazol-1-yl)-phenyl]-acetamide] here?
A: > 1000 nM

Q: `COc1ccc2c(c1)nc(C(F)(F)F)n2-c1ccc(NC(=O)CSc2ccccc2)cc1` [Compound 124, 2-Phenylsulfanyl-N-[4-(2-trifluoromethyl-5-methoxy-benzoimidazol-1-yl)-phenyl]-acetamide] was tested. Which IC50 did it give?
A: > 1000 nM

Q: With `CCOC(=O)CCC(=O)Nc1ccc(-n2c(C(F)(F)F)nc3cc(OC)ccc32)cc1` [Compound 125, N-[4-(2-trifluoromethyl-5-methoxy-benzoimidazol-1-yl)-phenyl]-succinamic acid ethyl ester] as the compound, how does the IC50 read?
A: > 1000 nM

Q: `COc1ccc2c(c1)nc(C(F)(F)F)n2-c1ccc(NC(=O)c2ccccc2Cl)cc1` [Compound 126, 2-Chloro-N-[4-(2-trifluoromethyl-5-methoxy-benzoimidazol-1-yl)-phenyl]-benzamide] was tested. Which IC50 did it give?
A: > 1000 nM

Q: `COc1ccc2c(c1)nc(C(F)(F)F)n2-c1ccc(NC(=O)c2cc(C(F)(F)F)ccc2C(F)(F)F)cc1` [Compound 127, 2,5-Di-(trifluoromethyl)-N-[4-(2-trifluoromethyl-5-methoxy-benzoimidazol-1-yl)-phenyl]-benzamide] was tested. Which IC50 did it give?
A: > 1000 nM

Q: With `COc1ccc2c(c1)nc(C(F)(F)F)n2-c1ccc(NC(=O)c2ccccc2OC)cc1` [Compound 128, 2-Methoxy-N-[4-(2-trifluoromethyl-5-methoxy-benzoimidazol-1-yl)-phenyl]-benzamide] as the compound, how does the IC50 read?
A: > 1000 nM

Q: Which IC50 does the source give for `COc1ccc2c(c1)nc(C(F)(F)F)n2-c1ccc(NC(=O)c2cc(C(F)(F)F)cc(C(F)(F)F)c2)cc1` [Compound 129, 3,5-Di-(trifluoromethyl)-N-[4-(2-trifluoromethyl-5-methoxy-benzoimidazol-1-yl)-phenyl]-benzamide] here?
A: > 1000 nM

Q: Which IC50 does the source give for `COc1ccc(OC)c(C(=O)Nc2ccc(-n3c(C(F)(F)F)nc4cc(OC)ccc43)cc2)c1` [Compound 130, 2,5-Dimethoxy-N-[4-(2-trifluoromethyl-5-methoxy-benzoimidazol-1-yl)-phenyl]-benzamide] here?
A: > 1000 nM

Q: With `COc1ccc2c(c1)nc(C(F)(F)F)n2-c1ccc(NC(=O)Cc2ccc(OC)c(OC)c2)cc1` [Compound 131, 2-(3,4-dimethoxy-phenyl)-N-[4-(2-trifluoromethyl-5-methoxy-benzoimidazol-1-yl)-phenyl]-acetamide] as the compound, how does the IC50 read?
A: > 1000 nM
